Experimental data reported in patent US8258158B2 (Hoffmann-La Roche Inc., priority 2009, dated 2012).

The compounds below were run against T1, human HSL (Homo sapiens, UniProt Q05469) (assay: Human hormone-sensitive lipase (HSL) enzyme inhibition assay (colorimetric, DMPT substrate)). Conditions: human full length HSL-His6; 2,3-dimercapto-1-propanol tributyrate substrate; 37° C., 20 minutes; read-out: HSL hum IC50.
T1 construct: overlapping PCR to generate a full length human HSL ORF with a 3′-His6 tag; His6 (C); made in house; host or cells: High 5 insect cells (baculovirus, pFast-BAC)
T1 sequence (Q05469 1-1076): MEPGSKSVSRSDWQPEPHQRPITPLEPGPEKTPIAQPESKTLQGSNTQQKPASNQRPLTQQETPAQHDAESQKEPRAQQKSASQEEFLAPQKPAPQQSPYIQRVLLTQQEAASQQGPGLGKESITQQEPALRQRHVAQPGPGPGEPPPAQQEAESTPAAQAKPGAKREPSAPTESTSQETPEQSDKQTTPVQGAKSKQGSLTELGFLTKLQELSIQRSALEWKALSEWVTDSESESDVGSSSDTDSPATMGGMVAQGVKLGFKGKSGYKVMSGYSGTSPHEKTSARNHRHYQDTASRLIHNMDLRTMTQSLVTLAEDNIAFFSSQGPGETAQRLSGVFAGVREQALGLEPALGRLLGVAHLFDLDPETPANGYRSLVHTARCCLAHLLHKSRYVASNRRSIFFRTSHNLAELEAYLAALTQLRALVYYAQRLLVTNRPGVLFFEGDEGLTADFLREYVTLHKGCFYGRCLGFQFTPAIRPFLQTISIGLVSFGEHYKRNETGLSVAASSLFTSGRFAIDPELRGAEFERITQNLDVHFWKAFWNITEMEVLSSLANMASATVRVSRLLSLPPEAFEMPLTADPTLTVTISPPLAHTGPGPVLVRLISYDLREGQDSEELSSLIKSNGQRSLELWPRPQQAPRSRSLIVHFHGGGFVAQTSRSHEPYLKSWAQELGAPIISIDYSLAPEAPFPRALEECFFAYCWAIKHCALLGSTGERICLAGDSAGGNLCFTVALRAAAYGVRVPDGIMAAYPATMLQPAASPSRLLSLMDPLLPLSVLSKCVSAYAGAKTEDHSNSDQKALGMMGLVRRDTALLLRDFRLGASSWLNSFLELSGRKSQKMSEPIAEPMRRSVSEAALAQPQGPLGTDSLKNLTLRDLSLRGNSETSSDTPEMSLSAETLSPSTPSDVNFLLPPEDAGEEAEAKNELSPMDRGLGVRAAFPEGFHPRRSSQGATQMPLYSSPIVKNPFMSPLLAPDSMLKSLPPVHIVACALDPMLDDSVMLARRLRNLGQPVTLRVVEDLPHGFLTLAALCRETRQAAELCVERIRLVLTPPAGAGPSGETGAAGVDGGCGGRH
Format: biochemical
Description: Production of Human Full Length Hormone Sensitive Lipase-His^6:
1) Cloning: cDNA was prepared from commercial human brain polyA+ RNA and used as a template in overlapping PCR to generate a full length human HSL ORF with a 3′-His6 tag. This full length insert was cloned into the pFast-BAC vector and the DNA-sequence of several single clones was verified. DNA from a correct full length clone with the 3′His6 tag was used to transform the E. coli strain DH10BAC. Resulting bacmid DNA was used to generate a titered baculovirus stock for protein generation. The sequence of the encoded HSL conforms to Swissprot entry Q05469, with the additional C-terminal His6-tag.
2) Protein purification: Culture: 5.5 L, High 5 cells expressing human full length HSL-His^6, 48 hr., containing 25 μM E-64. Cell count: […], 90% viable. Cells were thawed. On ice, cells were suspended in Base Buffer containing 10% glycerol, 25 mM Tris-Cl, 300 mM NaCl, 10 mM imidazole, 10 mM 2-mercaptoethanol, 2 μg pepstatin/ml, 2 μg leupeptin/ml, 2 μg antipain/ml, pH 8.0 at 4° C. in a final volume of 475 ml with 3.75×10^7 cells/ml. […] was done at 3×30 sec., Lubrol PX was added to 0.2% final concentration followed by stirring for 15 min. at 4° C. and centrifugation at 25 k×g, 60 min., 4° C. Soluble proteins were mixed with 60 ml of pre-washed and equilibrated Ni-NTA Agarose (Qiagen 30210) followed by tumbling end-over-end, 45 min., 4° C., centrifugation 1000 rpm 5 min and letting resin settle 5 min. Supernatant was removed, the resin washed in the centrifuge vessel using 5 volumes of Base Buffer containing 0.2% Lubrol PX. Centrifugation was done again, then the supernatant discarded. The resin was poured onto a 0.8 μm membrane in a disposable filter unit (Nalge 450-0080), and washed with 5 volumes of Base Buffer containing 0.2% Lubrol PX. It was then washed with 30 volumes of Base Buffer containing 60 mM imidazole pH 7.5 at 4° C. The protein was eluated with 5 volumes of 25 mM Tris-Cl, 300 mM NaCl, 200 mM imidazole, 10 mM 2-mercaptoethanol, pH 7.5 at 4° C. by tumbling resin with buffer end-over-end, 30 min., 4° C. The resin was captured on a 0.2 μm membrane disposable filter unit (Millipore SCGP U02 RE) and the eluate collected in the reservoir. The eluate was concentrated using a 30 k MWCO centrifugal filter device (Sartorius Vivascience Vivacell 100, VC1022), to 20 ml. It was then dialyzed overnight at 4° C., two times against 2 L of 10% glycerol, 25 mM Tris-Cl, 300 mM NaCl, 0.2 mM EDTA, 0.2 mM DTT, pH 7.5 at 4° C. The protein was filtered using a 0.22 μm disposable filter unit (Millipore SCGP00525). The protein concentration was calculated from absorbance at 280 nm, using 280=0.67 cm-1 mg-1. Yield was 235 mg, total. The protein was stored at −80° C.
Human Hormone-Sensitive Lipase (HSL) Enzyme Inhibition Assay:
HSL enzyme activity was measured by a colorimetric assay using 2,3-dimercapto-1-propanol tributyrate (Aldrich, St. Louis, Mo.) as a substrate. Typically, 1.5 mM 2,3-dimercapto-1-propanol tributyrate (DMPT) in 100 mM MOPS, pH 7.2, 0.2 mg/ml fatty acid-free BSA was prepared by sonication at 4° C. to homogenous suspension. Test compounds (2 mM stock in DMSO) were diluted 3 fold in series in DMSO. Compound solutions were diluted 24 fold in 1.5 mM DMPT containing solution and 18 ul per well was added to 384-well microplates (Corning Costar). Twelve microliters per well of human HSL (15 ug/ml) was added and the reaction mixture was incubated at 37° C. for 20 minutes. Six microliters of 12 mM dithio-bis-(2-nitrobenzoic acid) (DTNB) in DMSO plus 1.2% SDS and 0.6% Triton X-100 were added and the mixture was incubated at room temperature for 15 minutes. Product production was monitored by reading absorbance at 405 nm on an Envision Reader (PerkinElmer Life and Analytical Sciences, Shelton, Conn.).
In the case of Cc1ccc(S(=O)(=O)N2CCC(C(=O)Nc3ccc(OCC(O)C(F)(F)F)cc3)CC2)cc1 (racemic) [Example 52, (rac)-1-(Toluene-4-sulfonyl)-piperidine-4-carboxylic acid [4-(3,3,3-trifluoro-2-hydroxy-propoxy)-phenyl]-amide], the IC50 is reported as 860 nM. COc1ccc(NC(=O)C2CCN(S(=O)(=O)c3ccccc3)CC2)nn1 [Example 3, 1-Benzenesulfonyl-piperidine-4-carboxylic acid (6-methoxy-pyridazin-3-yl)-amide] showed an IC50 of 12000 nM. Cc1ccc(S(=O)(=O)N2CCC(C(=O)NCC3(c4ccc(Cl)cc4)CC3)CC2)cc1 [Example 64, 1-(Toluene-4-sulfonyl)-piperidine-4-carboxylic acid [1-(4-chloro-phenyl)-cyclopropylmethyl]-amide] was tested, and the IC50 was 1490 nM. O=C(Nc1ccc(OC(F)(F)F)cc1)C1(CO)CCN(S(=O)(=O)c2ccccc2)CC1 [Example 26, 1-Benzenesulfonyl-4-hydroxymethyl-piperidine-4-carboxylic acid (4-trifluoromethoxy-phenyl)-amide] was tested, and the IC50 was 220 nM. Cc1ccc(S(=O)(=O)N2CCC(C(=O)N(C)c3ccc(OC(F)(F)F)cc3)CC2)cc1 [Example 16, 1-(Toluene-4-sulfonyl)-piperidine-4-carboxylic acid methyl-(4-trifluoromethoxy-phenyl)-amide] gave an IC50 of 40 nM. In the case of COCCCC1(C(=O)Nc2ccc(OC(C)C)cc2)CCN(S(=O)(=O)c2ccccc2)CC1 [Example 12, 1-Benzenesulfonyl-4-(3-methoxy-propyl)-piperidine-4-carboxylic acid (4-isopropoxy-phenyl)-amide], the IC50 is reported as 920 nM. COc1ccc(S(=O)(=O)N2CCC(C(=O)Nc3ccc(OC(C)C)cc3)CC2)cc1 [Example 49, 1-(4-Methoxy-benzenesulfonyl)-piperidine-4-carboxylic acid (4-isopropoxy-phenyl)-amide] showed an IC50 of 90 nM. Work on CC(C)c1ccc(NC(=O)C2CCN(C(=O)CC3CC3)CC2)cc1 [Example 8, 1-(2-Cyclopropyl-acetyl)-piperidine-4-carboxylic acid (4-isopropyl-phenyl)-amide] yielded an IC50 of 800 nM. With CCN(C(=O)C1CCN(S(=O)(=O)c2ccc(C)cc2)CC1)c1ccc(OC(C)C(F)(F)F)cc1 (racemic) [Example 4, (rac)-1-(Toluene-4-sulfonyl)-piperidine-4-carboxylic acid ethyl-[4-(2,2,2-trifluoro-1-methyl-ethoxy)-phenyl]-amide] the IC50 was 3000 nM. With COc1ccc(S(=O)(=O)N2CCC(F)(C(=O)Nc3ccc(OC(F)(F)F)cc3)CC2)cc1 [Example 29, 4-Fluoro-1-(4-methoxy-benzenesulfonyl)-piperidine-4-carboxylic acid (4-trifluoromethoxy-phenyl)-amide] the IC50 was 280 nM. CC(C)Oc1ccc(NC(=O)C2CCN(S(=O)(=O)c3ccccc3)CC2)cc1 [Example 47, 1-Benzenesulfonyl-piperidine-4-carboxylic acid (4-isopropoxy-phenyl)-amide] was tested, and the IC50 was 70 nM. With O=C(Nc1ccc(OC(F)(F)F)cc1)C1CCN(S(=O)(=O)c2ccccc2)CC1 [Example 46, 1-Benzenesulfonyl-piperidine-4-carboxylic acid (4-trifluoromethoxy-phenyl)-amide] the IC50 was 40 nM. CC(C)Oc1ccc(NC(=O)C2CCN(S(=O)(=O)c3ccccc3Cl)CC2)cc1 [Example 39, 1-(2-Chloro-benzenesulfonyl)-piperidine-4-carboxylic acid (4-isopropoxy-phenyl)-amide] showed an IC50 of 40 nM. Work on Cc1ccc(S(=O)(=O)N2CCC(C(=O)Nc3ccc(OCC(F)(F)F)cc3)CC2)cc1 [Example 14, 1-(Toluene-4-sulfonyl)-piperidine-4-carboxylic acid [4-(2,2,2-trifluoro-ethoxy)-phenyl]-amide] yielded an IC50 of 160 nM. Cc1ccc(S(=O)(=O)N2CCC(F)(C(=O)Nc3ccc(OC(C)C(F)(F)F)cc3)CC2)cc1 (racemic) [Example 32, (rac-4-Fluoro-1-(toluene-4-sulfonyl)-piperidine-4-carboxylic acid [4-(2,2,2-trifluoro-1-methyl-ethoxy)-phenyl]-amide] gave an IC50 of 920 nM. Work on Cc1ccc(S(=O)(=O)N2CC[C@H](C(=O)Nc3ccc(OC(F)(F)F)cc3)C[C@H]2CO)cc1 (racemic) [Example 42, (2S,4S)-2-Hydroxymethyl-1-(toluene-4-sulfonyl)-piperidine-4-carboxylic acid (4-trifluoromethoxy-phenyl)-amide and (2R,4R)-2-Hydroxymethyl-1-(toluene-4-sulfonyl)-piperidine-4-carboxylic acid (4-trifluoromethoxy-phenyl)-amide] yielded an IC50 of 40 nM. CC(Oc1ccc(NC(=O)C2CCN(C(=O)c3ccccc3Cl)CC2)cc1)C(F)(F)F (racemic) [Example 44, (rac)-1-(2-Chloro-benzoyl)-piperidine-4-carboxylic acid [4-(2,2,2-trifluoro-1-methyl-ethoxy)-phenyl]-amide] was tested, and the IC50 was 620 nM. Compound Cc1ccc(S(=O)(=O)N2CCC(C)(C(=O)Nc3ccc(OC(C)C(F)(F)F)cc3)CC2)cc1 (racemic) [Example 43, (rac)-4-Methyl-1-(toluene-4-sulfonyl)-piperidine-4-carboxylic acid [4-(2,2,2-trifluoro-1-methyl-ethoxy)-phenyl]-amide] has an IC50 of 810 nM. Cc1ccc(S(=O)(=O)N2CCC(CO)(C(=O)Nc3ccc(OC(C)C(F)(F)F)cc3)CC2)cc1 (racemic) [Example 55, (rac)-4-Hydroxymethyl-1-(toluene-4-sulfonyl)-piperidine-4-carboxylic acid [4-(2,2,2-trifluoro-1-methyl-ethoxy)-phenyl]-amide] gave an IC50 of 1420 nM.
